These are literature values, as cited in patent US20260374745A1, “METHODS FOR PRODUCING AROMATIC THIAZINES OR SELENAZINES” (Universität Heidelberg, priority 2023, published 2026).

One series concerns HIV. The following applies: Mizuhara et al., Org. Biomol. Chem. 2012, 10, 6792-6802.
For series [1], the system named is 3-deoxy-d-manno-octulosonic acid 8-phosphate (KDO 8-P) synthase. The note with it: role: inhibitor; Birck et al., J. Am. Chem. Soc. 2000, 122, 9334-9335.

Take `N=C1Sc2ccccc2C2=NCCCN12` [PD 404182]: the anti-HIV activities result in the series on HIV was “potent”. The “3-deoxy-d-manno-octulosonic acid 8-phosphate (KDO 8-P) synthase inhibitor” value in series [1] is listed as “inhibitor”.
